# In paper PMC11173382, “In Vitro Investigations into the Potential Drug Interactions of Pseudoginsenoside DQ Mediated by Cytochrome P450 and Human Drug Transporters” (Molecules, 2024):
# Biological target: T1, hOAT1 (Homo sapiens, UniProt Q4U2R8)
# T1 sequence (Q4U2R8 1-563): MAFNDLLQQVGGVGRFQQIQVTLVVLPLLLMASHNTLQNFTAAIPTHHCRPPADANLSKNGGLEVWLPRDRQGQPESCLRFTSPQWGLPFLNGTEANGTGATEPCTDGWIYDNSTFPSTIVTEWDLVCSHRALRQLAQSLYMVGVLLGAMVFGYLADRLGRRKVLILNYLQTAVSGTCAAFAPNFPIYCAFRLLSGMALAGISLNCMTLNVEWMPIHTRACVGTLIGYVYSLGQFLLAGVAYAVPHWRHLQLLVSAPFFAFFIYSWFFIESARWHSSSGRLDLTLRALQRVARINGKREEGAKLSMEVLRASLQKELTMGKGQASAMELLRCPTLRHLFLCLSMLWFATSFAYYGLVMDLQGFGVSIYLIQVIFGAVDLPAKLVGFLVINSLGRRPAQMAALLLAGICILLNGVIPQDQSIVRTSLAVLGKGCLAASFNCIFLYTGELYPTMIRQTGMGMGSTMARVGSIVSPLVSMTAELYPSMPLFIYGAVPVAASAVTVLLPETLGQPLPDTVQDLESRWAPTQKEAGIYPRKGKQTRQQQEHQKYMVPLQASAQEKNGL
# Experiment: Substrates uptake assay, MDCKII-OAT1 cells (14C-PAH)
# Type: in vitro ADME
# Excerpt: Drug transporters mediate the cellular uptake and efflux of their substrates. Therefore, cell lines overexpressing a drug transporter can be utilized to investigate inhibitors of the transporter by assessing changes in substrate uptake. For each drug transporter, we selected a well-characterized inhibitor as the positive control. Radiolabeled substrates were used to indicate the decrease in transport efficiency when the drug transporters were inhibited by PDQ or the control inhibitors.
# The concentrations of the control drugs and the substrates were stated in the assay details. Working solutions of the control inhibitors, the radiolabeled substrates, and each dose of PDQ were prepared at 200 times (200×) more concentrated solutions with DMSO for further dilution.
# Transporter-overexpressed cell lines. Human organic anion transporter-overexpressed cell lines MDCKII-OAT1 and S2-OAT3, human organic anion transport polypeptide-overexpressed cell lines HEK293A-OATP1B1 and HEK293A-OATP1B3, human organic cation transporter 2-overexpressed cell line S2-OCT2, and human multi-drug resistance protein MDR1 (or P-gp)-overexpressed cell line MDCKII-MDR1 were gifts from Japan Fuji Biomedical Co., Ltd. (Fuji, Shizuoka Prefecture, Japan). Breast cancer resistance protein-overexpressed vesicles (sf9-BCRP vesicle) were purchased from GenoMembrane Co., Ltd. (Yokohama, Kanagawa, Japan).
# Substrates uptake assay. In this assay, we studied the inhibition of PDQ against transporters OAT1, OAT3, OCT2, OATP1B1 and OATP1B3 with MDCKII-OAT1, S2-OAT3, S2-OCT2, HEK293A-OATP1B1and HEK293A-OATP1B3 cells, respectively. The radiolabeled substrates for OAT1, OAT3, OATP1B1, OATP1B3 and OCT2 were […], respectively (Table 5). Probenecid ([…]) was the positive control inhibitor of OAT1 and OAT3, while rifampicin ([…]) served as the control drug of OATP1B1 and OATP1B3. For OCT2, we used […] cimetidine to compare with the inhibitory effect of PDQ. Two times (2×) more concentrated working solutions of the drugs and the substrate were prepared with Dulbecco’s phosphate-buffered saline (DPBS, Gibco, Grand Island, NY, USA.). Then, an equal volume of 2× drug solution and 2× radiolabeled substrate solution were mixed as the working mix. All reagents were pre-warmed to 37 °C.
# The cells were digested with 0.05% trypsin/EDTA. The density of the single-cell suspension was adjusted to 2.0 × 10^5 cells/mL for S2 cells and to 1.5 × 10^5 cells/mL for MDCK II and HEK293A cells. The cell suspension was then added to the reservoirs of the 24-well plate for culture until full confluency. The medium in the wells was removed, and the wells were washed with DPBS. Then, the plate was incubated for 10 min with pre-warmed DPBS in the wells. After removing DPBS, […] of working mix was added to each well to initiate the substrate uptake process. The reaction time was 5 min for S2-OCT2 cells, while the other four types of cells were incubated with the reaction mix for 2 min. Cold DPBS was used to terminate the substrate transportation. To each well, […] NaOH ([…]) was added to lyse the cells. Then, […] cell lysate was transferred to the counting vials, and 3 mL scintillation cocktail (Aquasol-2, PerkinElmer, Waltham, MA, USA) was added. […] Each sample was replicated three times (N = 3).
# In = [100 × (U − U0)/(Uc − U0)]%(3)
# The results were expressed as mean ± standard deviation (SD) and analyzed with GraphPad Prism 8.0 software (CA, USA). The IC50 of PDQ was curve-fitted with the FORECAST function.
smiles,measurement,setting,value
"CC(C)(O)[C@@H]1CC[C@@](C)([C@H]2CC[C@]3(C)[C@@H]2[C@H](O)C[C@@H]2[C@@]4(C)CC[C@H](O)C(C)(C)[C@@H]4CC[C@]23C)O1 [PDQ, (20S,24S)-dammar-20,24-epoxy-3β, 12β, 25-triol]",IC50,"MDCKII-OAT1, 14C-PAH 5 µM, 2 min",> 30 µM
same,DPM (14C-PAH uptake by OAT1),inhibitor 0.1 μM,540.3±39.2 DPM
same,DPM (14C-PAH uptake by OAT1),inhibitor 0.3 μM,566.0±44.8 DPM
same,DPM (14C-PAH uptake by OAT1),inhibitor 1 μM,547.7±68.8 DPM
same,DPM (14C-PAH uptake by OAT1),inhibitor 3 μM,496.3±38.1 DPM
same,DPM (14C-PAH uptake by OAT1),inhibitor 10 μM,558.7±19.7 DPM
same,DPM (14C-PAH uptake by OAT1),inhibitor 30 μM,460.3±5.7 DPM
